This test relates to BDF1 mice, P1081 chloroleukemia ip, survival T/C. Briefly: NCI In Vivo Anticancer Drug Screen. Data for tumor model P1081 Chloroleukemia (intraperitoneal) in B6D2F1 (BDF1) mice. The conditions noted are these: endpoint: mean survival time, higher = longer survival. How it is done: The antitumor activity of compounds was measured in mice bearing transplantable tumors. Survival or tumor size were measured and the results are expressed as the measurement made in the treated group (T) divided by the measurement made in the vehicle treated control group (C). The tumor model used in this assay is P1081 Chloroleukemia (intraperitoneal) in B6D2F1 (BDF1) mice

The mark [1] stands for this setting: dose: 62.5 mg/kg/injection, schedule: Q01DX Z (ip), vehicle: carboxymethylcellulose (CMC).
[2] abbreviates: dose: 0.25 mg/kg/injection, schedule: Q01DX Z (ip), vehicle: carboxymethylcellulose (CMC).
Where [3] appears, read: dose: 0.5 mg/kg/injection, schedule: Q01DX Z (ip), vehicle: carboxymethylcellulose (CMC).
Setting [4] is: dose: 8.0 mg/kg/injection, schedule: Q01DX Z (ip), vehicle: carboxymethylcellulose (CMC).
Setting [5] is: dose: 1.0 mg/kg/injection, schedule: Q01DX Z (ip), vehicle: carboxymethylcellulose (CMC).

SMILES strings stand for the structures. Values joined by “and” are separate entries in the source; they are usually repeats but may differ in a detail not shown here. Equal entries are not always repeated. Toxic doses and inconclusive results are not listed.

`OCC1OC(n2cnc3c(Cl)ncnc32)C(O)C1O` (stereo not given): the T/C was 103 % of control (dose: 2.5 mg/kg/injection, schedule: Q01DX Z (ip), vehicle: carboxymethylcellulose (CMC)); 95 % of control (dose: 62.5 mg/kg/injection, schedule: Q01DX010 (ip), vehicle: saline); 95 % of control under setting [1]; 90 % of control (dose: 125.0 mg/kg/injection, schedule: Q01DX010 (ip), vehicle: saline); 91 % of control (dose: 125.0 mg/kg/injection, schedule: Q01DX Z (ip), vehicle: carboxymethylcellulose (CMC)); 100 % of control (dose: 250.0 mg/kg/injection, schedule: Q01DX010 (ip), vehicle: saline). In addition, the T/C was 118 % of control and 95 % of control (dose: 250.0 mg/kg/injection, schedule: Q01DX Z (ip), vehicle: carboxymethylcellulose (CMC)); 100 % of control (dose: 500.0 mg/kg/injection, schedule: Q01DX010 (ip), vehicle: saline); 98 % of control and 104 % of control (dose: 500.0 mg/kg/injection, schedule: Q01DX Z (ip), vehicle: carboxymethylcellulose (CMC)).
On to `CCN(CC)C(=S)S`, for which the T/C was 99 % of control (dose: 125.0 mg/kg/injection, schedule: Q01DX Z (ip), vehicle: other); 96 % of control (dose: 250.0 mg/kg/injection, schedule: Q01DX Z (ip), vehicle: other); 102 % of control (dose: 1000.0 mg/kg/injection, schedule: Q01DX Z (ip), vehicle: other).
`O=C(Nc1ccc(C2=NCCN2)cc1)c1ccc(C(=O)Nc2ccc(C3=NCCN3)cc2)c([N+](=O)[O-])c1`: the T/C (dose: 6.0 mg/kg/injection, schedule: Q01DX010 (ip), vehicle: saline) is 260 % of control and 288 % of control; the T/C (dose: 8.0 mg/kg/injection, schedule: Q01DX010 (ip), vehicle: saline) was 285 % of control and 311 % of control; the T/C (dose: 12.0 mg/kg/injection, schedule: Q01DX010 (ip), vehicle: saline) was 166 % of control and 250 % of control; the T/C (dose: 18.0 mg/kg/injection, schedule: Q01DX010 (ip), vehicle: saline) was 120 % of control and 122 % of control.
Consider `O[C@H](CN1CC1)[C@@H](O)CN1CC1`, for which the T/C (dose: 0.12 mg/kg/injection, schedule: Q01DX Z (ip), vehicle: carboxymethylcellulose (CMC)) was 193 % of control; the T/C under setting [2] was 204 % of control; the T/C under setting [3] was 117 % of control; the T/C (dose: 16.0 micrograms/kg/injection, schedule: Q01DX Z (ip), vehicle: carboxymethylcellulose (CMC)) is 100 % of control; the T/C (dose: 62.5 micrograms/kg/injection, schedule: Q01DX010 (ip), vehicle: saline) was 316 % of control; the T/C (dose: 125.0 micrograms/kg/injection, schedule: Q01DX010 (ip), vehicle: saline) is 210 % of control and 261 % of control. Moreover, the T/C (dose: 125.0 micrograms/kg/injection, schedule: Q01DX Z (ip), vehicle: carboxymethylcellulose (CMC)) was 157 % of control; the T/C (dose: 250.0 micrograms/kg/injection, schedule: Q01DX010 (ip), vehicle: saline) was 288 % of control; the T/C (dose: 500.0 micrograms/kg/injection, schedule: Q01DX010 (ip), vehicle: saline) was 150 % of control and 177 % of control.
In the case of `CN(Cc1cnc2nc(N)nc(N)c2n1)c1ccc(C(=O)N[C@@H](CCC(=O)O)C(=O)O)cc1`, the T/C reads like this: (dose: 0.03 mg/kg/injection, schedule: Q01DX Z (ip), vehicle: other) 160 % of control; (dose: 0.06 mg/kg/injection, schedule: Q01DX Z (ip), vehicle: other) 115 % of control; (dose: 0.07 mg/kg/injection, schedule: Q01DX Z (ip), vehicle: other) 113 % of control; (dose: 0.15 mg/kg/injection, schedule: Q01DX Z (ip), vehicle: other) 117 % of control and 122 % of control; (dose: 0.19 mg/kg/injection, schedule: Q01DX010 (ip), vehicle: other) 110 % of control and 120 % of control and 121 % of control; (dose: 0.24 mg/kg/injection, schedule: Q01DX Z (ip), vehicle: other) 189 % of control. Also, the T/C (dose: 0.31 mg/kg/injection, schedule: Q01DX Z (ip), vehicle: other) is 111 % of control and 117 % of control; the T/C (dose: 0.38 mg/kg/injection, schedule: Q01DX010 (ip), vehicle: other) is 123 % of control; the T/C (dose: 0.47 mg/kg/injection, schedule: Q01DX Z (ip), vehicle: other) was 226 % of control; the T/C (dose: 0.62 mg/kg/injection, schedule: Q01DX Z (ip), vehicle: other) was 110 % of control and 113 % of control; the T/C (dose: 0.75 mg/kg/injection, schedule: Q01DX010 (ip), vehicle: other) is 150 % of control and 160 % of control and 170 % of control; the T/C (dose: 0.94 mg/kg/injection, schedule: Q01DX Z (ip), vehicle: other) is 92 % of control. The T/C reads like this: (dose: 1.5 mg/kg/injection, schedule: Q01DX010 (ip), vehicle: other) 187 % of control and 207 % of control and 210 % of control; (dose: 1.88 mg/kg/injection, schedule: Q01DX Z (ip), vehicle: other) 98 % of control; (dose: 3.0 mg/kg/injection, schedule: Q01DX010 (ip), vehicle: other) 106 % of control and 108 % of control and 105 % of control.
Consider `Cc1cc2nc3c(=O)[nH]c(=O)nc-3n(CC(O)C(O)C(O)C(O)CO)c2cc1C` (stereo not given), for which the T/C is 88 % of control and 100 % of control (dose: 50.0 mg/kg/injection, schedule: Q01DX010 (ip), vehicle: saline); 88 % of control and 90 % of control (dose: 100.0 mg/kg/injection, schedule: Q01DX010 (ip), vehicle: saline); 90 % of control and 100 % of control (dose: 200.0 mg/kg/injection, schedule: Q01DX010 (ip), vehicle: saline); 100 % of control (dose: 400.0 mg/kg/injection, schedule: Q01DX010 (ip), vehicle: saline).
Consider `CCOC(=O)NP(=O)(N1CC1(C)C)N1CC1(C)C` (stereo not given), for which the T/C by setting is: under setting [4], 109 % of control; (dose: 16.0 mg/kg/injection, schedule: Q01DX Z (ip), vehicle: carboxymethylcellulose (CMC)) 106 % of control and 99 % of control; under setting [1], 87 % of control and 104 % of control; (dose: 63.0 mg/kg/injection, schedule: Q01DX Z (ip), vehicle: carboxymethylcellulose (CMC)) 169 % of control.
Consider `CC(=O)OCC1OC(n2ncc(=O)[nH]c2=O)C(OC(C)=O)C1OC(C)=O` (stereo not given), for which the T/C runs as follows: (dose: 118.0 mg/kg/injection, schedule: Q01DX Z (ip), vehicle: other) 100 % of control; (dose: 235.0 mg/kg/injection, schedule: Q01DX Z (ip), vehicle: other) 93 % of control; (dose: 468.75 mg/kg/injection, schedule: Q01DX Z (ip), vehicle: alkali diluted with saline) 115 % of control; (dose: 469.0 mg/kg/injection, schedule: Q01DX Z (ip), vehicle: other) 91 % of control; (dose: 1875.0 mg/kg/injection, schedule: Q01DX Z (ip), vehicle: alkali diluted with saline) 121 % of control; (dose: 3750.0 mg/kg/injection, schedule: Q01DX Z (ip), vehicle: alkali diluted with saline) 111 % of control.
For `Nc1nc(=S)c2[nH]cnc2[nH]1`, the T/C is 169 % of control under setting [2]; 91 % of control under setting [5]; 150 % of control (dose: 1.25 mg/kg/injection, schedule: Q01DX010 (ip), vehicle: other); 110 % of control and 113 % of control (dose: 2.5 mg/kg/injection, schedule: Q01DX010 (ip), vehicle: other); 110 % of control (dose: 5.0 mg/kg/injection, schedule: Q01DX010 (ip), vehicle: other); 100 % of control (dose: 31.2 micrograms/kg/injection, schedule: Q01DX Z (ip), vehicle: carboxymethylcellulose (CMC)). Further, the T/C by setting is: (dose: 62.5 micrograms/kg/injection, schedule: Q01DX Z (ip), vehicle: carboxymethylcellulose (CMC)) 103 % of control; (dose: 250.0 micrograms/kg/injection, schedule: Q01DX Z (ip), vehicle: carboxymethylcellulose (CMC)) 155 % of control.
For `Cn1cnc([N+](=O)[O-])c1Sc1nc(N)nc2nc[nH]c12`, the T/C runs as follows: under setting [2], 90 % of control; under setting [3], 110 % of control; under setting [5], 111 % of control; (dose: 2.0 mg/kg/injection, schedule: Q01DX Z (ip), vehicle: carboxymethylcellulose (CMC)) 110 % of control; under setting [4], 86 % of control.
In the case of `CO[C@@H]1[C@@H](OC2OC(C)C(OC3CC(C)(O)C(OC(=O)CC(C)C)C(C)O3)C(N(C)C)C2O)[C@@H](CC=O)C[C@@H](C)C(=O)/C=C/C2O[C@H]2C[C@@H](C)OC(=O)C[C@H]1OC(C)=O` (stereo not given in full), the T/C reads like this: (dose: 37.5 mg/kg/injection, schedule: Q01DX010 (ip), vehicle: saline) 111 % of control and 120 % of control; (dose: 150.0 mg/kg/injection, schedule: Q01DX010 (ip), vehicle: saline) 111 % of control and 115 % of control; (dose: 300.0 mg/kg/injection, schedule: Q01DX010 (ip), vehicle: saline) 122 % of control.

Values taken from PubChem BioAssay AID246 (DTP/NCI, 2004).
